Results published in US20220135538A1, “P300/CBP HAT INHIBITORS AND METHODS FOR THEIR USE” (Constellation Pharmaceuticals, Inc., priority 2019, published 2022).
Blank lines part the entries; values can stand above or below the compound they belong to.

Legend:
[1] = target: T1, p300 HAT domain (residues 1287-1666) (Homo sapiens, UniProt Q09472); experiment: P300 HAT SPA assay (scintillation proximity, acetylation of biotinylated H3(1-21) peptide); assay type: biochemical; conditions: 6 nM p300-HAT domain; average of at least 2 replicate titrations
T1 construct: The p300 HAT domain (residues 1287-1666) was expressed; His tag (N); made in house; host or cells: Escherichia coli
T1 sequence (Q09472 1287-1666): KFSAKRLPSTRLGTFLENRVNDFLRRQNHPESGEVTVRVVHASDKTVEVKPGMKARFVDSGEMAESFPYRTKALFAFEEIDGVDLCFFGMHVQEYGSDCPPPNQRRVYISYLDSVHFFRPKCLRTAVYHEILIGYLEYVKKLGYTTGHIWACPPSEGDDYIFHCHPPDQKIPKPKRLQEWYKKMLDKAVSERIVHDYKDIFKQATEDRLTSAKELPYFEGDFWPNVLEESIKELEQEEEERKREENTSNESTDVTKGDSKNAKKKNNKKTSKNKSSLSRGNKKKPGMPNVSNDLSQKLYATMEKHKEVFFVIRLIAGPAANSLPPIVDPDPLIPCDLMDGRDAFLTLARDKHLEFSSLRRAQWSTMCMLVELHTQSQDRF
Procedure: The activity of the compounds described herein as p300/CBP HAT inhibitors may be readily determined using a scintillation proximity assay (SPA) methodology (Udenfriend, S.; Gerber, L.; Nelson, N. Scintillation Proximity Assay: A Sensitive and Continuous Isotopic Method for Monitoring Ligand/Receptor and Antigen/Antibody Interactions. Anal. Biochem. 1987, 161, 494-500).
In a typical experiment the p300 HAT inhibitory activity of the compounds described herein was determined in accordance with the following experimental method.
The p300 HAT domain (residues 1287-1666) was expressed and purified with an N-terminal His tag from Escherichia coli cells. The expressed protein was purified by Ni2+affinity, followed by anion exchange chromatography. Appropriate fractions were pooled and buffer exchanged into 20 mM Hepes pH 7.5, 150 mM NaCl, and 1 mM TCEP.
(§1) Compounds of interest solubilized in DMSO were stamped in a Greiner black 384-well plate in a 10-point duplicate dose response using an Echo 550 (Labcyte). p300-HAT domain purified in-house (aa 1287-1666) was diluted to 6 nM in reaction buffer (50 mM Tris pH 8.0, 100 mM NaCl, 1 mM DTT, 0.069 mM Brij-35, 0.1 mM EDTA, 0.1 mg/mL BSA), combined with 4.14 μM AcCoA (Sigma-Aldrich) and 0.46 μM ^3H-AcCoA (PerkinElmer), and 12.5 μL added to each well and incubated for 30 min at RT. Reactions were initiated with 12.5 μL 2 μM biotinylated H3(1-21) peptide (New England Peptide) and run for 1 hr at RT, then quenched with 20 μL stop solution (200 mM Tris pH 8.0, 200 mM EDTA, 2M NaCl, 160 μM anacardic acid). 35 μL of the reaction volume was transferred to a 384-well streptavidin FlashPlate (PerkinElmer) using a Bravo liquid handler (Velocity 11) and incubated for 1.5 hr at RT. Plates were aspirated, washed with 95 μL wash buffer (15 mM Tris pH 8.5, 0.069 μM Brij-35), aspirated, sealed, and scintillation counts read on a Topcount (PerkinElmer). Data were analyzed in Genedata to determine inhibitor IC50 values.

full length p300 = target: T2, full length p300 (Homo sapiens, UniProt Q09472); experiment: Full length p300 SPA assay; assay type: biochemical; conditions: 6 nM purified full length p300; read-out: FL P300 IC50
T2 construct: used 6 nM purified full length p300 (purchased from Active Motif); purchased Active Motif
Procedure: as §1
The full length p300 SPA assay was run following the same protocol as p300 HAT SPA assay, but used 6 nM purified full length p300 (purchased from Active Motif) in place of the purified p300-HAT domain.

[2] = system: acetylation of chromatin at H3K18 in HCT-116 cells; experiment: H3K18Ac MSD cellular assay; assay type: cell-based; conditions: Homo sapiens, 2 hr treatment
Procedure: Select compounds were also evaluated in a H3K18Ac MSD cellular assay that measures the ability of compounds to inhibit the acetylation of chromatin at H3K18, a process catalyzed by p300 and CBP. In a typical experiment the p300 HAT inhibitory activity inside cells of the compounds described herein was determined in accordance with the following experimental method. 20 k HCT-116 cells per well are plated in 75 μL RPMI+10% FBS media the night before treatment. Compounds plated in DMSO at 4× final concentration are resuspended in 30 μL RPMI+10% FBS, then 25 μL is combined with corresponding wells containing cells. Treated cells are incubated for 2 hr at 37° C., then lysed in 500 μL final volume and frozen at −80° C. MSD plates (Meso Scale Discovery) are coated overnight at 4° C. with 60 μL 1:500 α-total histone antibody (Millipore MAB3422) in PBS. Plates are then blocked with 5% BSA in TBST shaking at RT for 1 hr, washed, and 30 μL lysate added to each well for 2 hr shaking at RT. Plates are washed and 25 μL 1:216 α-H3K18ac antibody (CST 9675) in PBS added, then incubated for 1 hr shaking at RT. Plates are washed again, then 25 μL 1:1000 Sulfo-Tag goat α-rabbit antibody (Meso Scale Discovery R32Ab-1) in PBS is added for 1 hr shaking at RT. Plates are washed once more, then 150 μL 1× Read Buffer (MSD #R92TD-3) is added to all wells and read on MSD SECTOR Imager 2400 using the conventional read setup.

T2 sequence (Q09472 whole entry): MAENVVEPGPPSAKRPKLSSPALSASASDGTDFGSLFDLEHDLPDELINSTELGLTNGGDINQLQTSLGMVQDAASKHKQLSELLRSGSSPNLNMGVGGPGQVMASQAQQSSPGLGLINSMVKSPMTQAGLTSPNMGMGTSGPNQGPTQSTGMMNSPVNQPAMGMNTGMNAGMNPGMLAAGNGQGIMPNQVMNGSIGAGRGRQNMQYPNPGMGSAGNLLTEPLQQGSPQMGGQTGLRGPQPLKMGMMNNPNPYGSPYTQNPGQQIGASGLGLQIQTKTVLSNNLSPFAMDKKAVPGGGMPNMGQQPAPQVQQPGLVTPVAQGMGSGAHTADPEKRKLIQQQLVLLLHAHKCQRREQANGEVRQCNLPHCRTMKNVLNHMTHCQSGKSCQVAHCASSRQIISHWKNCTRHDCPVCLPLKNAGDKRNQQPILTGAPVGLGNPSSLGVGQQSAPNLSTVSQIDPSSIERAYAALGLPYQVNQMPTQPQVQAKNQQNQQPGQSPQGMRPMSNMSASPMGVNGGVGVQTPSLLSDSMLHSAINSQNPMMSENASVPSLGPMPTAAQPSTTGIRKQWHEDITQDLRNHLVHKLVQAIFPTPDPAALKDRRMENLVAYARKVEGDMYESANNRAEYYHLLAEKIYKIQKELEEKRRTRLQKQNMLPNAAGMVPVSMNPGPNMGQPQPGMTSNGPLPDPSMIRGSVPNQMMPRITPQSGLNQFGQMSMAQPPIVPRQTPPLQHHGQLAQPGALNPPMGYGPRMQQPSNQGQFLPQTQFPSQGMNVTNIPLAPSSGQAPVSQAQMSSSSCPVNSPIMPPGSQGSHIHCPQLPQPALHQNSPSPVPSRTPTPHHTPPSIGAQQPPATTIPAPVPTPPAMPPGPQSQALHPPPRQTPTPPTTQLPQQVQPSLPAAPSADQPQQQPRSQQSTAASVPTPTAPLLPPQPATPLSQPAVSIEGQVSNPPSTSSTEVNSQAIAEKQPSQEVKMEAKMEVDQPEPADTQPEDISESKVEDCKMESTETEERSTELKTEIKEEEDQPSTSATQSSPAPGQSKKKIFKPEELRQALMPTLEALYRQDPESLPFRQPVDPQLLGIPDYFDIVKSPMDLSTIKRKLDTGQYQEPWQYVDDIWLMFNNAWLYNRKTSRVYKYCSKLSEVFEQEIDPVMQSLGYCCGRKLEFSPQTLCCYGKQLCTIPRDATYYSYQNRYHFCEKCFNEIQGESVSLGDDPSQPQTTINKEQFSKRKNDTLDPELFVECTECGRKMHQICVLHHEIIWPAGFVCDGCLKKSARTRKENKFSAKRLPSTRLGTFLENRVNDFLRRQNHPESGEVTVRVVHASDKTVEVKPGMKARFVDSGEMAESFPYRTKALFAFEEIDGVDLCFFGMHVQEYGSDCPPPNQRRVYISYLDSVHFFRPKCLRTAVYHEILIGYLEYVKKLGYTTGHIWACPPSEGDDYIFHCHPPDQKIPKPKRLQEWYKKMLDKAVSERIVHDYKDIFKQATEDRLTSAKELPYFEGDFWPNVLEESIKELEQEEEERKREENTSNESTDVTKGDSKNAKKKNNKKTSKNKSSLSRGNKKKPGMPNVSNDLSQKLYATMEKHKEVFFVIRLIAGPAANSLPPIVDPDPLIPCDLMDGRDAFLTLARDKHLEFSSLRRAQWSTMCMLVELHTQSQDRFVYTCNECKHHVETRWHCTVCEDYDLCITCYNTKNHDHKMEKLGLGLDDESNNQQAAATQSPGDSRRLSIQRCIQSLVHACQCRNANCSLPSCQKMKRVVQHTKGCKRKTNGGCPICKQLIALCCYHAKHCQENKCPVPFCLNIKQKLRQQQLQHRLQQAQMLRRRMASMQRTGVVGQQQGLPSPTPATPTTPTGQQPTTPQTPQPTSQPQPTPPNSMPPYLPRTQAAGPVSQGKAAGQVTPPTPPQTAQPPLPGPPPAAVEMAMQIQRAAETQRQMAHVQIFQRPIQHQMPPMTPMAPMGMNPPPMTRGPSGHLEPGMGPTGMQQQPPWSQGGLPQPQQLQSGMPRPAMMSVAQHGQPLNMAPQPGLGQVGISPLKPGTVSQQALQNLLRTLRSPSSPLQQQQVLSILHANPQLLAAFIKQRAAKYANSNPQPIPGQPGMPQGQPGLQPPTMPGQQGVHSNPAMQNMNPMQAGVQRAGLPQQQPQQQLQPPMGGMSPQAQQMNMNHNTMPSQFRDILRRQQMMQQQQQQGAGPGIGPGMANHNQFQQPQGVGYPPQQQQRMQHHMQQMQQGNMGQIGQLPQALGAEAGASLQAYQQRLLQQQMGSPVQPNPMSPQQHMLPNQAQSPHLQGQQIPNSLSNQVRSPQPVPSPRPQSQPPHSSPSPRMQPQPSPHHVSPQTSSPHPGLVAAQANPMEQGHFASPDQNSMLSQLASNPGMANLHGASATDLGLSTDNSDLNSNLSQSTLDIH

SMILES: N#Cc1ccc(CCNC(C(=O)Nc2ccc(OC3CCOCC3)cn2)c2ccccc2)cc1 (single isomer, unassigned) [5 Isomer 2]
IC50 [1]: > 2000 nM | IC50 (full length p300): 137 nM

SMILES: CC(=O)N1CCC(Oc2ccc(NC(=O)C(NCCc3ccc(C#N)cc3)c3ccccc3)nc2)CC1 (single isomer, unassigned) [9 Isomer 2]
IC50 [1]: > 2000 nM | IC50 (full length p300): 102 nM

SMILES: CN1CCC(Oc2ccc(NC(=O)C(NCCc3ccc(C#N)cc3)c3ccccc3)nc2)CC1 (single isomer, unassigned) [1 Isomer 2]
IC50 [1]: > 5000 nM | IC50 (full length p300): 240 nM

SMILES: CN1CCC(Oc2ccc(NC(=O)C(NCCc3ccc(Cl)cc3)c3ccccc3)nc2)CC1 (single isomer, unassigned) [11 Isomer 2]
IC50 [1]: > 2000 nM

SMILES: O=C(Nc1ccc(OCCn2cccn2)cn1)C(NCCc1ccc(Cl)cc1)c1ccccc1 (single isomer, unassigned) [7 Isomer 1]
IC50 [1]: > 2000 nM

SMILES: Cc1cnc(Oc2ccc(NC(=O)C(NCCc3ccc(C#N)cc3)c3ccccc3)nc2)nc1 (single isomer, unassigned) [22 Isomer 2]
IC50 [1]: 1390 nM

SMILES: CC(CNC(C(=O)Nc1ccc(OC2CN(C(=O)OC(C)(C)C)C2)cn1)c1ccccc1)c1ccc(C#N)cc1 (single isomer, unassigned) [25 Isomer 1]
IC50 [1]: > 1000 nM

SMILES: CN1CCC(Oc2ccc(NC(=O)C(NCCc3ccc(C#N)cc3)c3ccccc3)nc2)C1=O (single isomer, unassigned) [12 Isomer 3]
IC50 [1]: > 2000 nM

SMILES: CN1CC(Oc2ccc(NC(=O)C(NCCc3ccc(Cl)cc3)c3ccccc3)nc2)CCC1=O (single isomer, unassigned) [10 Isomer 2]
IC50 [1]: > 2000 nM

SMILES: CC(CNC(C(=O)Nc1ccc(Oc2cnn(C)c2)cn1)c1ccccc1)c1ccc(C#N)cc1 (single isomer, unassigned) [17 Isomer 3]
IC50 [1]: > 2000 nM

SMILES: Cn1cc(COc2ccc(NC(=O)C(NCCc3ccc(Cl)cc3)c3ccccc3)nc2)cn1 (single isomer, unassigned) [8 Isomer 1]
IC50 [1]: 1360 nM

SMILES: CN1CCC(Oc2ccc(NC(=O)C(NCCc3ccc(C#N)cc3)c3ccccc3)nc2)C1=O (single isomer, unassigned) [12 Isomer 4]
IC50 [1]: > 2000 nM

SMILES: N#Cc1ccc(CCNC(C(=O)Nc2ccc(O[C@@H]3CCOC3)cn2)c2ccccc2)cc1 (single isomer, unassigned) [4 Isomer 2]
IC50 [1]: > 2000 nM

SMILES: CC(Oc1ccc(NC(=O)C(NCCc2ccc(C#N)cc2)c2ccccc2)nc1)c1cnn(C)c1 (single isomer, unassigned) [18 Isomer 4]
IC50 [1]: > 2000 nM

SMILES: CC(=O)N1CC[C@H](Oc2ccc(NC(=O)C(NCCc3ccc(C#N)cc3)c3ccccc3)nc2)C1 (single isomer, unassigned) [13 Isomer 1]
IC50 [1]: > 2000 nM

SMILES: CC(Oc1ccc(NC(=O)C(NCCc2ccc(C#N)cc2)c2ccccc2)nc1)c1cnn(C)c1 (single isomer, unassigned) [18 Isomer 3]
IC50 [1]: > 2000 nM

The next lines start with the values.

IC50 [1]: 23.3 nM | IC50 (full length p300): < 3 nM | EC50 [2]: 31.9 nM
SMILES: CC(=O)N1CC(Oc2ccc(NC(=O)C(NCC(C)c3ccc(C#N)cc3)c3cccc(F)c3)nc2)C1 (single isomer, unassigned) [23 Isomer 1]

IC50 [1]: 56.4 nM | IC50 (full length p300): 4.21 nM
SMILES: CC(=O)N1CCC(Oc2ccc(NC(=O)C(NCCc3ccc(C#N)cc3)c3ccccc3)nc2)CC1 (single isomer, unassigned) [9 Isomer 1]

IC50 [1]: 27.4 nM | IC50 (full length p300): < 2 nM
SMILES: CC(CNC(C(=O)Nc1ccc(OC2CN(C(=O)C3CC3)C2)cn1)c1ccccc1)c1ccc(C#N)cc1 (single isomer, unassigned) [21 Isomer 1]

IC50 [1]: 33.7 nM
SMILES: CC(CNC(C(=O)Nc1ccc(Oc2cnn(C)c2)cn1)c1ccccc1)c1ccc(C#N)cc1 (single isomer, unassigned) [17 Isomer 1]

IC50 [1]: 21.2 nM | IC50 (full length p300): < 2 nM | EC50 [2]: 20 nM
SMILES: CC(=O)N1CC(Oc2ccc(NC(=O)C(NC[C@@H](C)c3ccc(C#N)cc3)c3ccccc3)nc2)C1 (single isomer, unassigned) [2 Isomer 1]

IC50 [1]: 1140 nM
SMILES: N#Cc1ccc(CCNC(C(=O)Nc2ccc(OC3COC3)cn2)c2ccccc2)cc1 (single isomer, unassigned) [6 Isomer 2]

IC50 [1]: 98.5 nM
SMILES: O=C(Nc1ccc(OCCn2cccn2)cn1)C(NCCc1ccc(Cl)cc1)c1ccccc1 (single isomer, unassigned) [7 Isomer 2]

IC50 [1]: 26.6 nM
SMILES: CN1CCC(Oc2ccc(NC(=O)C(NCCc3ccc(Cl)cc3)c3ccccc3)nc2)CC1 (single isomer, unassigned) [11 Isomer 1]

IC50 [1]: 16.8 nM | EC50 [2]: 69 nM
SMILES: Cn1cc(COc2ccc(NC(=O)C(NCCc3ccc(Cl)cc3)c3ccccc3)nc2)cn1 (single isomer, unassigned) [8 Isomer 2]

IC50 [1]: 65 nM
SMILES: CN1CCC(Oc2ccc(NC(=O)C(NCCc3ccc(C#N)cc3)c3ccccc3)nc2)C1=O (single isomer, unassigned) [12 Isomer 1]

IC50 [1]: 26.7 nM
SMILES: CC(CNC(C(=O)Nc1ccc(OC2CCN(C(=O)C3CC3)CC2)cn1)c1ccccc1)c1ccc(C#N)cc1 (single isomer, unassigned) [20 Isomer 2]

IC50 [1]: 209 nM
SMILES: CC(Oc1ccc(NC(=O)C(NCCc2ccc(C#N)cc2)c2ccccc2)nc1)c1cnn(C)c1 (single isomer, unassigned) [18 Isomer 2]

IC50 [1]: 27.7 nM | IC50 (full length p300): < 2 nM | EC50 [2]: 35 nM
SMILES: CN1CCC(Oc2ccc(NC(=O)C(NCCc3ccc(C#N)cc3)c3ccccc3)nc2)CC1 (single isomer, unassigned) [1 Isomer 1]

IC50 [1]: 59.9 nM
SMILES: CC(=O)N1CC[C@H](Oc2ccc(NC(=O)C(NCCc3ccc(C#N)cc3)c3ccccc3)nc2)C1 (single isomer, unassigned) [13 Isomer 2]

IC50 [1]: 97.6 nM | IC50 (full length p300): 3.69 nM
SMILES: N#Cc1ccc(CCNC(C(=O)Nc2ccc(OC3CCOCC3)cn2)c2ccccc2)cc1 (single isomer, unassigned) [5 Isomer 1]

IC50 [1]: 39.9 nM
SMILES: N#Cc1ccc(CCNC(C(=O)Nc2ccc(OC3COC3)cn2)c2ccccc2)cc1 (single isomer, unassigned) [6 Isomer 1]

IC50 [1]: 45.4 nM
SMILES: CN1CC(Oc2ccc(NC(=O)C(NCCc3ccc(Cl)cc3)c3ccccc3)nc2)CCC1=O (single isomer, unassigned) [10 Isomer 3]

IC50 [1]: 115 nM
SMILES: CC(CNC(C(=O)Nc1ccc(OC2CN(C(=O)OC(C)(C)C)C2)cn1)c1ccccc1)c1ccc(C#N)cc1 (single isomer, unassigned) [25 Isomer 2]

IC50 [1]: 311 nM
SMILES: CC(Oc1ccc(NC(=O)C(NCCc2ccc(C#N)cc2)c2ccccc2)nc1)c1cnn(C)c1 (single isomer, unassigned) [18 Isomer 1]

IC50 [1]: 94.2 nM
SMILES: CN1CC(Oc2ccc(NC(=O)C(NCCc3ccc(Cl)cc3)c3ccccc3)nc2)CCC1=O (single isomer, unassigned) [10 Isomer 1]
